The assay relates to P388. As to the kind of experiment: Cytotoxicity against mouse P388 cells. It is filed as functional. The following applies: read-out: ED50 (the source's name).
Take `COc1ccccc1-c1coc2cc(O)c(OC)c(O)c2c1=O`: the EC50 was more than 50 µg/mL.
Consider `O=c1c(-c2ccccc2O)coc2cc3c(c(O)c12)OCO3` [IRISONE B], for which the EC50 was more than 50 µg/mL.
The same measure for `COc1ccccc1-c1coc2cc3c(c(O)c2c1=O)OCO3` [IRISONE A]: more than 50 µg/mL.

The record behind these values is ChEMBL document CHEMBL1150709, “Irisones A and B: two new isoflavones from Iris missouriensis” (1987).
